Assay: Maxima of UV-A and UV-B absorption of quinoxaline derivatives in 2-propanol
Format: physicochemical
Settings: 1 mg of substance per 100 ml of solvent
Procedure: The measurement was carried out in 2-propanol at a concentration of 1 mg of substance per 100 ml of solvent.

| UV-B (280 320 nm) Max. abs. (absorbance at UV-B maximum) | UV-B (280 320 nm) λ [nm] (wavelength of UV-B maximum) | UV-A (400 320 nm) Max. abs. (absorbance at UV-A maximum) | UV-A (400 320 nm) λ [nm] (wavelength of UV-A maximum) | Structure (SMILES) |
| --- | --- | --- | --- | --- |
| 0.614 | 295.6 |  |  | CCOC(=O)c1nc2ccccc2nc1Nc1cc(OC)c(OC)c(OC)c1 |
|  |  | 0.262 | 359.8 | FC(F)(F)c1cc(Nc2cnc3ccccc3n2)cc(C(F)(F)F)c1 |
